ChEMBL document CHEMBL1153350, “Synthesis of actin-depolymerizing compounds” (Bioorg Med Chem Lett, 2009)

Legend:
[1] = Cytotoxicity against human HeLaS3 cells; format: functional, cell-based; settings: HeLa S3
[2] = Inhibition of F-actin depolymerization

Compound	IC50 [1] [µg/mL]	IC50 [2] [µM]
CC(=O)O[C@@H]([C@@H](C)[C@@H](CC[C@H](C)[C@H](O)[C@H](C)[C@@H](O)CCO)OC(=O)[C@H](C)N(C)C)[C@H](C)/C=C/N(C)C=O	> 10	7.9
C/C=C/[C@@H](OC(=O)[C@H](C)N(C)C)[C@H](C)[C@H](OC(C)=O)[C@H](C)/C=C/N(C)C=O	> 10	210
CC(=O)O[C@@H]([C@@H](C)[C@@H](/C=C/CCc1ccccc1)OC(=O)[C@H](C)N(C)C)[C@H](C)/C=C/N(C)C=O	> 10	47
CC(=O)O[C@@H]([C@@H](C)[C@@H](/C=C/c1ccccc1)OC(=O)[C@H](C)N(C)C)[C@H](C)/C=C/N(C)C=O	> 10	85
CC(=O)O[C@@H]([C@@H](C)[C@@H](/C=C/CCCCc1ccccc1)OC(=O)[C@H](C)N(C)C)[C@H](C)/C=C/N(C)C=O	> 10	21
